Tests used:
Test in all cases: relative viability (nuclei count vs DMSO), 5 days (fraction); higher = more cells survive
[1] = compound: O=C(C[C@H]1NCCC[C@@H]1O)Cn1cnc2cc(Br)c(Cl)cc2c1=O (racemic) [Halofuginone] + CC(=O)Nc1cccc(-n2c(=O)n(C3CC3)c(=O)c3c(Nc4ccc(I)cc4F)n(C)c(=O)c(C)c32)c1 [Trametinib] (partner 0.02 µM)
In short: (§1)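 The day after seeding in 1536-well plates, lung cancer cell lines were treated by pin tool with a single drug, or with a fixed anchor-drug dose together with five library-drug doses (not always all listed) in √10 steps. After 5 days, a combined fix-and-stain solution (final 0.05% Triton X-100, 1% formaldehyde, 1 ug/ml Hoechst) was added. Nuclei counted on 4× images gave relative viability as treated counts over vehicle counts, reported as the median of duplicate plates.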

[2] = compound: O=C(C[C@H]1NCCC[C@@H]1O)Cn1cnc2cc(Br)c(Cl)cc2c1=O (racemic) [Halofuginone] + C[C@@H](Oc1cc(-c2cnn(C3CCNCC3)c2)cnc1N)c1c(Cl)ccc(F)c1Cl [Crizotinib] (partner 1 µM)
In short: as §1

[3] = compound: O=C(C[C@H]1NCCC[C@@H]1O)Cn1cnc2cc(Br)c(Cl)cc2c1=O (racemic) [Halofuginone] + NC(=O)Nc1cc(-c2cccc(F)c2)sc1C(=O)N[C@H]1CCCNC1 [AZD7762] (partner 0.2 µM)
In short: as §1

[4] = compound: Nc1ncn([C@H]2C[C@H](O)[C@@H](CO)O2)c(=O)n1 [Decitabine] + CC(=O)c1c(C)c2cnc(Nc3ccc(N4CCNCC4)cn3)nc2n(C2CCCC2)c1=O [Palbociclib] (partner 0.5 µM)
In short: as §1

Cell Line	relative viability ([1]; first compound 0.001 µM)	relative viability ([1]; first compound 0.003162 µM)	relative viability ([1]; first compound 0.01 µM)	relative viability ([1]; first compound 0.03162 µM)	relative viability ([1]; first compound 0.1 µM)	relative viability ([2]; first compound 0.001 µM)	relative viability ([2]; first compound 0.003162 µM)	relative viability ([2]; first compound 0.01 µM)	relative viability ([2]; first compound 0.03162 µM)	relative viability ([2]; first compound 0.1 µM)	relative viability ([3]; first compound 0.001 µM)	relative viability ([3]; first compound 0.003162 µM)	relative viability ([3]; first compound 0.01 µM)	relative viability ([3]; first compound 0.03162 µM)	relative viability ([3]; first compound 0.1 µM)	relative viability ([4]; first compound 0.04 µM)	relative viability ([4]; first compound 0.1265 µM)	relative viability ([4]; first compound 0.4 µM)	relative viability ([4]; first compound 4 µM)	relative viability ([4]; first compound 1.265 µM)
201T	0.71	0.715	0.703	0.723	0.663	0.966	1.02	1.04	1.05	0.964	0.634	0.634	0.589	0.711	0.8	0.373	0.383	0.439	0.379	–
A549	–	–	–	–	–	0.824	0.75	0.611	0.338	0.0443	–	–	–	–	–	–	–	–	–	–
A-427	0.823	0.787	0.742	0.714	0.634	0.941	0.911	0.795	0.807	0.764	0.729	0.806	0.805	0.77	0.497	0.451	0.466	0.378	0.381	0.431
ABC-1	–	–	–	–	–	1.09	1.08	0.954	1.26	1.15	–	0.728	0.689	0.832	0.775	–	0.805	0.794	0.551	0.57
BEN	1.14	1.11	1.07	1.02	0.714	0.979	0.784	1.07	0.772	0.479	0.851	0.685	0.844	0.654	0.418	0.497	0.443	0.455	0.42	0.435
CAL-12T	0.352	0.414	0.359	0.329	0.196	0.733	0.835	0.527	0.834	0.237	0.642	0.688	0.584	0.695	0.695	0.279	0.431	0.25	0.288	0.28
COR-L23	0.681	0.641	0.592	0.598	0.0948	0.822	0.78	0.624	0.62	0.0779	–	–	–	–	–	0.212	0.237	0.196	0.153	0.145
COR-L 105	0.446	0.492	0.481	0.421	0.383	1.01	0.853	0.722	0.718	0.515	–	–	–	–	–	0.45	0.474	0.397	0.387	0.408
Calu-6	–	–	–	–	–	0.882	0.814	0.82	0.407	0.151	–	–	–	–	–	–	–	–	–	–
ChaGo-K-1	0.873	0.899	0.924	0.887	0.79	1.18	1.2	1.03	1.11	0.975	0.869	0.839	0.854	0.874	0.885	0.764	0.545	0.442	0.637	0.362
EBC-1	–	–	–	–	–	0.186	0.202	0.188	0.223	0.2	–	–	–	–	–	–	–	–	–	–
EKVX	0.383	0.358	0.339	0.37	0.314	0.921	0.9	1.04	0.891	0.635	0.721	0.615	0.692	0.784	0.496	0.3	0.372	0.405	0.235	0.259
EMC-BAC-2	1.02	0.913	0.83	0.85	0.321	0.856	0.805	0.778	0.769	0.32	1.17	1.2	1.06	1.12	0.842	–	0.519	0.523	0.457	0.467
EPLC-272H	0.312	0.273	0.285	0.326	0.247	0.871	0.928	0.879	0.807	0.774	0.208	0.0783	0.216	0.215	0.19	0.353	0.316	–	0.272	0.326
H3255	0.746	0.73	0.543	0.716	0.517	0.94	0.948	0.875	0.952	0.791	1.05	0.777	0.871	0.844	0.876	0.333	0.343	0.3	0.307	0.302
HARA	0.918	1.27	0.639	0.968	0.221	1.17	1.05	0.985	1.05	0.943	0.279	0.506	0.391	0.305	0.304	0.238	0.244	0.253	0.207	0.223
IA-LM	–	–	–	–	–	0.845	0.899	0.768	0.384	0.0479	–	–	–	–	–	–	–	–	–	–
NCI-H520	0.572	0.734	0.695	0.45	0.287	0.764	0.808	0.749	0.693	0.316	–	–	–	–	–	0.22	0.23	0.204	0.184	0.17

Cell Line	relative viability ([1]; first compound 0.001 µM)	relative viability ([1]; first compound 0.003162 µM)	relative viability ([1]; first compound 0.01 µM)	relative viability ([1]; first compound 0.03162 µM)	relative viability ([1]; first compound 0.1 µM)	relative viability ([2]; first compound 0.001 µM)	relative viability ([2]; first compound 0.003162 µM)	relative viability ([2]; first compound 0.01 µM)	relative viability ([2]; first compound 0.03162 µM)	relative viability ([2]; first compound 0.1 µM)	relative viability ([3]; first compound 0.001 µM)	relative viability ([3]; first compound 0.003162 µM)	relative viability ([3]; first compound 0.01 µM)	relative viability ([3]; first compound 0.03162 µM)	relative viability ([3]; first compound 0.1 µM)	relative viability ([4]; first compound 0.04 µM)	relative viability ([4]; first compound 0.1265 µM)	relative viability ([4]; first compound 0.4 µM)	relative viability ([4]; first compound 4 µM)	relative viability ([4]; first compound 1.265 µM)
NCI-H522	0.734	0.753	0.791	0.777	0.633	–	–	–	–	–	0.969	0.948	0.974	0.852	0.813	0.97	0.803	0.817	0.533	0.634
NCI-H596	0.889	0.732	0.811	0.898	0.542	1.23	1.05	0.941	1.01	0.666	1.19	1.18	1.1	0.95	0.722	–	–	–	–	–
NCI-H661	0.624	0.629	0.579	0.515	0.373	1.1	–	0.911	0.921	0.893	–	–	–	–	–	0.489	0.468	0.417	0.361	0.348
NCI-H1299	–	–	–	–	–	1.03	1.01	0.959	0.873	0.397	–	–	–	–	–	–	–	–	–	–
NCI-H1395	0.95	1.03	0.912	0.889	0.746	–	–	–	–	–	0.385	0.39	0.372	0.385	0.41	0.583	0.606	0.6	0.523	0.55
NCI-H1563	–	–	–	–	–	0.868	0.835	0.891	0.555	0.452	–	–	–	–	–	–	–	–	–	–
NCI-H1648	0.46	0.449	0.582	0.495	0.497	–	–	–	–	–	0.742	0.608	0.631	0.854	0.694	0.275	0.246	0.296	0.31	0.287
NCI-H1650	0.656	0.696	0.55	0.57	0.216	1.05	1.05	0.951	0.823	0.59	–	–	–	–	–	0.262	0.353	0.248	0.293	0.255
NCI-H1703	–	–	–	–	–	1.04	0.583	0.538	0.592	0.28	0.119	0.121	0.121	0.13	0.151	–	–	–	–	–
NCI-H1793	0.483	0.524	0.363	0.503	0.327	–	–	–	–	–	0.461	0.593	0.508	0.394	0.549	0.339	0.329	0.381	0.31	0.301
NCI-H2009	0.345	0.343	0.295	0.234	0.11	1.15	1.09	1.06	0.923	0.668	–	–	–	–	–	0.43	0.231	0.116	0.275	0.193
NCI-H2023	0.625	0.482	0.558	0.202	0.0677	0.847	0.649	0.701	0.493	0.0689	–	–	–	–	–	0.329	0.36	0.287	0.157	0.23
NCI-H2228	0.662	0.4	0.436	0.39	0.0996	0.45	0.658	0.411	0.218	0.177	–	–	–	–	–	0.385	0.463	0.215	0.169	0.204
NCI-H2342	0.816	0.832	0.972	0.85	0.823	–	–	–	–	–	0.458	0.536	0.507	0.487	0.588	0.641	0.54	0.548	0.508	0.463
SK-LU-1	0.572	0.504	0.559	0.461	0.321	1.25	0.978	0.836	0.927	0.325	–	–	–	–	–	0.39	0.342	0.325	0.303	0.345
SK-MES-1	0.554	0.53	0.511	0.499	0.232	1.02	1.01	0.863	0.778	0.302	–	–	–	–	–	0.315	0.304	0.303	0.319	0.277
SW 900	0.871	0.941	–	1.03	0.534	–	–	–	–	–	0.677	0.564	–	0.621	0.46	0.457	0.506	0.314	0.348	0.305
SW 1573	0.563	–	0.596	0.23	0.0886	1.03	0.915	0.803	0.574	0.195	–	–	–	–	–	0.429	0.407	0.367	0.251	0.228
